Laboratory results from US12691112B2, “FGFR tyrosine kinase inhibitors for the treatment of urothelial carcinoma” (Janssen Pharmaceutica NV, priority 2019, dated 2026).
Where two headings read alike, the source gives them in different places.

System: metastatic or surgically unresectable urothelial cancer harboring select FGFR genetic alterations
Settings: chemo relapsed/refractory
Excerpt: The study comprises a Screening Phase (molecular screening at any time prior to first dose and study screening within 30 days of first dose), a treatment phase, and a post-treatment follow-up phase. The treatment phase comprises the period from first dose until the end-of-treatment visit. The follow-up phase extends until the subject has died, withdraws consent, is lost to follow-up, or the end of study, whichever comes first.
Included patients were adults with measurable urothelial cancer per Response Evaluation Criteria in Solid Tumors version 1.1.
Patients were required to have at least 1 FGFR2/FGFR3 mutation or fusion per central lab testing of RNA from formalin-fixed, paraffin-embedded tumor samples, using a custom reverse transcriptase polymerase chain reaction assay.
Patients were contacted every 12 weeks for survival assessment.
The study was designed to enroll 180 patients with specified FGFR alterations. Of these, ≥88 were required in the selected regimen. […] Responses were assessed by investigators and an independent radiological review committee. Progression-free survival and overall survival were estimated using Kaplan-Meier product limit method. Data from patients who were progression free and alive or with unknown status were censored at last tumor assessment. Efficacy end points were analysed at primary analysis cut-off.

[1] = 6 mg QD, Any FGFR alterations, n=73
[2] = 6 mg QD, FGFR fusions (excluding mutations), 2 responders
[3] = 6 mg QD, FGFR fusions (excluding mutations), n=10
[4] = 6 mg QD, FGFR mutations (excluding fusions), 22 responders
[5] = 6 mg QD, FGFR mutations (excluding fusions), n=59
[6] = 6 mg QD, FGFR mutations and fusions, 3 responders
[7] = 6 mg QD, FGFR mutations and fusions, n=4
[8] = 6 mg QD, Fusion: FGFR2-CASP7/FGFR3-BAIAP2L1, n=1
[9] = 6 mg QD, Mutation and fusion: FGFR3-G370C/FGFR2-BICC1, n=1
[10] = 6 mg QD, Mutation and fusion: FGFR3-G370C/FGFR3-TACC3 V1, n=1
[11] = 6 mg QD, Mutation and fusion: FGFR3-R248C/FGFR3-S249C/FGFR3-TACC3 V1, n=1
[12] = 6 mg QD, Mutation and fusion: FGFR3-R248C/FGFR3-TACC3 V1, n=1
[13] = 6 mg QD, Mutation: FGFR3-G370C/FGFR3-S249C, n=1
[14] = 6 mg QD, Mutation: FGFR3-R248C/FGFR3-Y373C, n=1
[15] = 8 mg QD, Any FGFR alterations, n=87
[16] = 8 mg QD, FGFR fusions (excluding mutations), 4 responders
[17] = 8 mg QD, FGFR fusions (excluding mutations), n=23
[18] = 8 mg QD, FGFR mutations (excluding fusions), 31 responders
[19] = 8 mg QD, FGFR mutations (excluding fusions), n=64
[20] = 8 mg QD, Fusion: FGFR2-CASP7/FGFR3-TACC3 V3, n=1
[21] = 10 mg 7 on/7 off, Any FGFR alterations, n=29
[22] = 10 mg 7 on/7 off, FGFR fusions (excluding mutations), n=2
[23] = 10 mg 7 on/7 off, FGFR mutations (excluding fusions), 5 responders
[24] = 10 mg 7 on/7 off, FGFR mutations (excluding fusions), n=24
[25] = 10 mg 7 on/7 off, FGFR mutations and fusions, 1 responder
[26] = 10 mg 7 on/7 off, FGFR mutations and fusions, n=3
[27] = 10 mg 7 on/7 off, Mutation and fusion: FGFR3-R248C/FGFR3-TACC3 V1, n=1
[28] = 10 mg 7 on/7 off, Mutation and fusion: FGFR3-S249C/FGFR3-BAIAP2L1, n=1
[29] = 10 mg 7 on/7 off, Mutation and fusion: FGFR3-S249C/FGFR3-Y373C/FGFR2-CASP7/FGFR3-BAIAP2L1/FGFR3-TACC3 V1/FGFR3-TACC3 V3, n=1

COc1cc(OC)cc(N(CCNC(C)C)c2ccc3ncc(-c4cnn(C)c4)nc3c2)c1 [erdafitinib, N-(3,5-dimethoxy-phenyl)-N′-(1-methylethyl)-N-[3-(1-methyl-1H-pyrazol-4-yl)quinoxalin-6-yl]ethane-1,2-diamine]
Confirmed complete response (CR) [1]: 3 (4.1%) | Confirmed partial response (PR) [1]: 24 (32.9%) | Disease control rate (CR + PR + SD) [1]: 55 (75.3%) | Inevaluable [1]: 4 (5.5%) | Progressive disease (PD) [1]: 14 (19.2%) | 6-month progression-free survival rate (95% CI), among responders [2]: 0.50 (0.01, 0.91) | 9-month progression-free survival rate (95% CI), among responders [2]: 0.50 (0.01, 0.91) | 12-month progression-free survival rate (95% CI), among responders [2]: 0.50 (0.01, 0.91) | Confirmed complete response (CR) [3]: 0% | Confirmed partial response (PR) [3]: 2 (20.0%) | Disease control rate (CR + PR + SD) [3]: 9 (90.0%) | Inevaluable [3]: 1 (10.0%) | Objective response rate (CR + PR) [3]: 2 (20.0%) | Progressive disease (PD) [3]: 0% | 6-month progression-free survival rate (95% CI), among responders [4]: 0.41 (0.21, 0.60) | 9-month progression-free survival rate (95% CI), among responders [4]: 0.27 (0.11, 0.46) | 12-month progression-free survival rate (95% CI), among responders [4]: 0.18 (0.06, 0.36) | Confirmed complete response (CR) [5]: 2 (3.4%) | Confirmed partial response (PR) [5]: 20 (33.9%) | Disease control rate (CR + PR + SD) [5]: 43 (72.9%) | Inevaluable [5]: 2 (3.4%) | Objective response rate (CR + PR) [5]: 22 (37.3%) | Progressive disease (PD) [5]: 14 (23.7%) | 6-month progression-free survival rate (95% CI), among responders [6]: 0.67 (0.05, 0.95) | 9-month progression-free survival rate (95% CI), among responders [6]: 0.67 (0.05, 0.95) | 12-month progression-free survival rate (95% CI), among responders [6]: 0.33 (0.01, 0.77) | Confirmed complete response (CR) [7]: 1 (25.0%) | Confirmed partial response (PR) [7]: 2 (50.0%) | Disease control rate (CR + PR + SD) [7]: 3 (75.0%) | Inevaluable [7]: 1 (25.0%) | Objective response rate (CR + PR) [7]: 3 (75.0%) | Progressive disease (PD) [7]: 0% | Confirmed complete response (CR) [8]: 0% | Confirmed partial response (PR) [8]: 0% | Disease control rate (CR + PR + SD) [8]: 1 (100.0%) | Inevaluable [8]: 0% | Objective response rate (CR + PR) [8]: 0% | Progressive disease (PD) [8]: 0% | Confirmed complete response (CR) [9]: 1 (100.0%) | Confirmed partial response (PR) [9]: 0% | Disease control rate (CR + PR + SD) [9]: 1 (100.0%) | Inevaluable [9]: 0% | Objective response rate (CR + PR) [9]: 1 (100.0%) | Progressive disease (PD) [9]: 0% | Confirmed complete response (CR) [10]: 0% | Confirmed partial response (PR) [10]: 1 (100.0%) | Disease control rate (CR + PR + SD) [10]: 1 (100.0%) | Inevaluable [10]: 0% | Objective response rate (CR + PR) [10]: 1 (100.0%) | Progressive disease (PD) [10]: 0% | Confirmed complete response (CR) [11]: 0% | Confirmed partial response (PR) [11]: 1 (100.0%) | Disease control rate (CR + PR + SD) [11]: 1 (100.0%) | Inevaluable [11]: 0% | Objective response rate (CR + PR) [11]: 1 (100.0%) | Progressive disease (PD) [11]: 0% | Confirmed complete response (CR) [12]: 0% | Confirmed partial response (PR) [12]: 0% | Disease control rate (CR + PR + SD) [12]: 0% | Inevaluable [12]: 1 (100.0%) | Objective response rate (CR + PR) [12]: 0% | Progressive disease (PD) [12]: 0% | Confirmed complete response (CR) [13]: 0% | Confirmed partial response (PR) [13]: 0% | Disease control rate (CR + PR + SD) [13]: 1 (100.0%) | Inevaluable [13]: 0% | Objective response rate (CR + PR) [13]: 0% | Progressive disease (PD) [13]: 0% | Confirmed complete response (CR) [14]: 0% | Confirmed partial response (PR) [14]: 1 (100.0%) | Disease control rate (CR + PR + SD) [14]: 1 (100.0%) | Inevaluable [14]: 0% | Objective response rate (CR + PR) [14]: 1 (100.0%) | Progressive disease (PD) [14]: 0% | Disease control rate (CR + PR + SD) [15]: 69 (79.3%) | Inevaluable [15]: 2 (2.3%) | Progressive disease (PD) [15]: 16 (18.4%) | 6-month progression-free survival rate (95% CI), among responders [16]: 0.50 (0.06, 0.84) | 9-month progression-free survival rate (95% CI), among responders [16]: 0.50 (0.06, 0.84) | Confirmed complete response (CR) [17]: 0% | Confirmed partial response (PR) [17]: 4 (17.4%) | Disease control rate (CR + PR + SD) [17]: 15 (65.2%) | Inevaluable [17]: 1 (4.3%) | Progressive disease (PD) [17]: 7 (30.4%) | 6-month progression-free survival rate (95% CI), among responders [18]: 0.42 (0.24, 0.59) | 9-month progression-free survival rate (95% CI), among responders [18]: 0.19 (0.07, 0.37) | 12-month progression-free survival rate (95% CI), among responders [18]: 0.19 (0.07, 0.37) | Confirmed complete response (CR) [19]: 3 (4.7%) | Confirmed partial response (PR) [19]: 28 (43.8%) | Disease control rate (CR + PR + SD) [19]: 54 (84.4%) | Inevaluable [19]: 1 (1.6%) | Progressive disease (PD) [19]: 9 (14.1%) | Confirmed complete response (CR) [20]: 0% | Confirmed partial response (PR) [20]: 0% | Disease control rate (CR + PR + SD) [20]: 0% | Inevaluable [20]: 1 (100.0%) | Objective response rate (CR + PR) [20]: 0% | Progressive disease (PD) [20]: 0% | Confirmed complete response (CR) [21]: 1 (3.4%) | Confirmed partial response (PR) [21]: 5 (17.2%) | Disease control rate (CR + PR + SD) [21]: 23 (79.3%) | Inevaluable [21]: 2 (6.9%) | Progressive disease (PD) [21]: 4 (13.8%) | Confirmed complete response (CR) [22]: 0% | Confirmed partial response (PR) [22]: 0% | Disease control rate (CR + PR + SD) [22]: 1 (50.0%) | Inevaluable [22]: 0% | Objective response rate (CR + PR) [22]: 0% | Progressive disease (PD) [22]: 1 (50.0%) | 6-month progression-free survival rate (95% CI), among responders [23]: 0.80 (0.20, 0.97) | 9-month progression-free survival rate (95% CI), among responders [23]: 0.80 (0.20, 0.97) | 12-month progression-free survival rate (95% CI), among responders [23]: 0.60 (0.13, 0.88) | Confirmed complete response (CR) [24]: 1 (4.2%) | Confirmed partial response (PR) [24]: 4 (16.7%) | Disease control rate (CR + PR + SD) [24]: 20 (83.3%) | Inevaluable [24]: 2 (8.3%) | Objective response rate (CR + PR) [24]: 5 (20.8%) | Progressive disease (PD) [24]: 2 (8.3%) | 6-month progression-free survival rate (95% CI), among responders [25]: 0 (NE, NE) | 9-month progression-free survival rate (95% CI), among responders [25]: 0 (NE, NE) | 12-month progression-free survival rate (95% CI), among responders [25]: 0 (NE, NE) | Confirmed complete response (CR) [26]: 0% | Confirmed partial response (PR) [26]: 1 (33.3%) | Disease control rate (CR + PR + SD) [26]: 2 (66.7%) | Inevaluable [26]: 0% | Objective response rate (CR + PR) [26]: 1 (33.3%) | Progressive disease (PD) [26]: 1 (33.3%) | Confirmed complete response (CR) [27]: 0% | Confirmed partial response (PR) [27]: 1 (100.0%) | Disease control rate (CR + PR + SD) [27]: 1 (100.0%) | Inevaluable [27]: 0% | Objective response rate (CR + PR) [27]: 1 (100.0%) | Progressive disease (PD) [27]: 0% | Confirmed complete response (CR) [28]: 0% | Confirmed partial response (PR) [28]: 0% | Disease control rate (CR + PR + SD) [28]: 0% | Inevaluable [28]: 0% | Objective response rate (CR + PR) [28]: 0% | Progressive disease (PD) [28]: 1 (100.0%) | Confirmed complete response (CR) [29]: 0% | Confirmed partial response (PR) [29]: 0%
